Measured values taken from patent US5656603A (Loyola University of Chicago, priority 1995, dated 1997).

Molecular target: T1, endopeptidase 24.11 (Bos taurus, UniProt E1BPL8)
T1 construct: Unless otherwise indicated, the source of each enzyme activity was a detergent extract of bovine lung; from tissue; host or cells: detergent extract of bovine lung
T1 sequence (E1BPL8 1-750): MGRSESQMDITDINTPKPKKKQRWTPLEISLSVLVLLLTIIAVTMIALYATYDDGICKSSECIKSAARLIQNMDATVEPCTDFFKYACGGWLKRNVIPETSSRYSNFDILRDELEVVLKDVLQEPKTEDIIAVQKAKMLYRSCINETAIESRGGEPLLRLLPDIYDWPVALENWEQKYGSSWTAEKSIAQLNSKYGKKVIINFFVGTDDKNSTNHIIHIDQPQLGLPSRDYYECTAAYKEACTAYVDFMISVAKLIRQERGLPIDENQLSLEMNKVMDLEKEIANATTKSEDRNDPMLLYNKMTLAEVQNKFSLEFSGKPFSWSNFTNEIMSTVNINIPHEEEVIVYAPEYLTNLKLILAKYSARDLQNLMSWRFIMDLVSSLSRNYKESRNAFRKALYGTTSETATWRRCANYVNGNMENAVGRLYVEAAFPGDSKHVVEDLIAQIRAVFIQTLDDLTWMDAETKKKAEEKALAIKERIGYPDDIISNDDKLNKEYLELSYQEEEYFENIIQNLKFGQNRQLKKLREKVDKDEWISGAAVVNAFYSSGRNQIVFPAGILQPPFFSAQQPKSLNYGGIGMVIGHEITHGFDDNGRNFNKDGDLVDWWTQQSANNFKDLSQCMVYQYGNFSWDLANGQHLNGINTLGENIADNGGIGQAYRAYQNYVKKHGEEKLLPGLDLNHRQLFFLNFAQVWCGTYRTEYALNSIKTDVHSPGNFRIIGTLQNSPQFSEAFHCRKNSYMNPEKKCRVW
Assay: Specificity of apstatin: endopeptidase 24.11
Type: biochemical
Conditions: detergent extract of bovine lung; Suc-Ala-Ala-Phe-7-amido-4-methyl-coumarin, pH 6.8, HPLC-1
Procedure: Specificity of Apstatin--Apstatin was assayed for its ability to inhibit several other peptidases. […] Unless otherwise indicated, the source of each enzyme activity was a detergent extract of bovine lung prepared as described in (12-13). Activities were determined by a modification of the fluorescent assay described above (indicated by "FLUO") or by HPLC separation and quantitation of reaction products using the method described in (12) (method "HPLC-1") or the method described below (method "HPLC-2"). […]

C[C@H](NC(=O)[C@@H]1CCCN1C(=O)[C@@H]1CCCN1C(=O)[C@@H](O)[C@H](N)Cc1ccccc1)C(N)=O [apstatin, N-[(2S, 3R)-3-amino-2-hydroxy-4-phenylbutanoyl]-L-prolyl-L-prolyl-Lalaninamide]
IC50: > 800 µM
